Source: PubChem BioAssay AID179 (DTP/NCI, 2004)
Activity calls are given as the source filed them.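 Rule for the calls: active = compounds giving half or more protection of infected cells from virus-caused growth loss, again on retest; inactive = the rest.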 Where a SMILES comes first, the peptide text is derived from it.

Test system: CEM cells HIV-1 protection, formazan growth assay
Assay: NCI AIDS Antiviral Assay
Details: for IC50: measured here: growth of uninfected CEM cells
Method in brief: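 CEM (human) cells, HIV-1 infected vs uninfected, 5-point dosing, formazan growth read-out. Retest threshold 50% protection.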

Row | SMILES | EC50 | IC50 | outcome
1 | N#Cc1c(O)c(N=Nc2ccc(Cl)cc2)c(=O)n2c1[nH]c1ccccc12 | > 200 µM | 53.7 µM | –
2 | CCC1OC2C(CC=C(C)C)=C3OC(C)(O)C(C)(CC)C(=O)C3=C3OC(=O)C=C1C32 (stereo not given) | > 200 µM | 33.1 µM | –
3 | CC(=O)NC(CS)C(=O)NC(CO)C(=O)NC(CO)C(=O)NC(Cc1c[nH]c2ccccc12)C(=O)N1CCCC1C(=O)NC(CO)C(=O)NC(Cc1c[nH]c2ccccc12)C(=O)NC(Cc1c[nH]cn1)C(=O)NC(CO)C(=O)NC(Cc1c[nH]c2ccccc12)C(=O)NCC(=O)NCC(=O)NC(CC(=O)O)C(=O)NC(CCC(N)=O)C(=O)NC(CCCCN)C(=O)NC(Cc1ccccc1)C(=O)NC(CCCNC(=N)N)C(=O)NC(CCCCN)C(N)=O (stereo not given) (Ac-CSSWPSWHSWGGDQKFRK-NH2; configuration not given here) | > 20 µM | > 20 µM | –
4 | Cc1ccc(N2CCc3c(C)c(C#N)c4nc5ccccc5n4c32)cc1 | > 200 µM | > 200 µM | –
5 | COc1ccccc1N=C(N)N/N=C/c1c[nH]c2ccccc12 | – | – | inactive
6 | CCCCCCCCC(=O)NCCCNCCCNC(=O)CCCCCCCC | > 100 µM | 10 µM | –
7 | C#CCOCn1cnc2ncnc(N)c21 | > 1230 µM | > 1230 µM | –
8 | COC(=O)[C@@H]1[C@H]2[C@H](OC(=O)c3ccccc3)CCN2C(=O)[C@H]1O | > 200 µM | 75.9 µM | –
9 | COc1cc(N=Nc2ccc(C(=O)N(C)C)cc2)c(C)cc1N=Nc1c(O)c2ccccc2[nH]c1=O | > 200 µM | > 200 µM | –
10 | CCCCCCCCCCCCNC1(C)CNCCCNCCNCCCNC1 | > 251 µM | 1.41 µM | –
11 | COC(=O)/C=C/c1ccc(OP(=O)(O)O)c(OC)c1 | > 200 µM | > 200 µM | –
12 | O=C(/C=C/c1ccccc1)CCC1C(=O)NC(=O)NC1=O | > 66.1 µM | > 66.1 µM | –
13 | CC(=O)Nc1cc2cc(NC(=O)C(Cl)(Cl)Cl)ccc2oc1=O | > 81.3 µM | > 81.3 µM | –
14 | CC(c1ccccc1)[P+](c1ccccc1)(c1ccccc1)c1ccccc1 (stereo not given) | > 200 µM | 1.32 µM | –
15 | COc1nc(C)nc2c1ncn2Cc1ccccc1 | > 200 µM | > 200 µM | –
16 | CC(=O)NC(CC(C)C)C(=O)NC(Cc1ccccc1)C(=S)N1CCCC1 (stereo not given) | > 174 µM | > 174 µM | –
17 | O=C(Nc1cc([N+](=O)[O-])cc([N+](=O)[O-])c1)OC1C2CCC1C1OC1C2 (stereo not given) | > 14.8 µM | > 14.8 µM | –
18 | COc1cccc(/C=N/[N-]C(N)=O)c1[O-].[OH3+].[Pd+2] | > 21.9 µM | > 21.9 µM | –
19 | N#Cc1c(N2CCCC2)[nH]c(=O)[nH]c1=S | > 200 µM | > 200 µM | –
20 | Nc1ccccc1Sc1ccc(Cl)cc1 | – | – | inactive
21 | O=C(O)CCC1COc2ccccc2O1 (stereo not given) | > 200 µM | > 200 µM | –

Row | SMILES | EC50 | IC50 | outcome
22 | NC(=S)NNC(=O)CCC(=O)Nc1ccc(Cl)cc1Cl | > 107 µM | > 107 µM | –
23 | COc1c(NS(=O)(=O)c2ccccc2)cc2c3c(cccc13)/C(=C1\Cc3cccc4c(OC)c(NS(=O)(=O)c5ccccc5)cc1c34)C2 | > 200 µM | 132 µM | –
24 | COc1ccc2c(=O)c(-c3cc4c(cc3OC)OCO4)coc2c1 | > 200 µM | > 200 µM | –
25 | Nc1ccn(C2OC(CO)C(O)C2O)c(=O)n1 (stereo not given) | > 2 µM | 0.00275 µM | –
26 | CC1(C)CSC(=S)N1 | > 200 µM | > 200 µM | –
27 | O=C(O)Cc1cccc2c(=O)c3ccccc3oc12 | > 200 µM | > 200 µM | –
28 | CC1(C)COC(c2cccc3c2C2C=CC3O2)=N1 (stereo not given) | > 200 µM | > 200 µM | –
29 | COC(=O)C(=C/c1ccc(OC)cc1)/C(C(=O)O)=C(/C)c1ccccc1 | > 708 µM | – | –
30 | O=C1NC(=S)N/C1=C\c1ccc(Br)s1 | > 200 µM | 112 µM | –
31 | CC(C)C1CN(C(=O)OCc2ccccc2)C2N1C(=O)C2(C)OCc1ccccc1 (stereo not given) | > 251 µM | 97.7 µM | –
32 | Cc1nn(C(=O)c2ccccc2O)c2c1C(c1ccc([N+](=O)[O-])cc1)SC(N)=N2 (stereo not given) | > 2 µM | 0.389 µM | –
33 | O=C(/C=C/c1ccc(Br)cc1)c1ccc(NCc2nc3ccccc3[nH]2)cc1 | > 16.6 µM | 11.5 µM | –
34 | Nc1nc(=S)ss1 | > 200 µM | 155 µM | –
35 | CC(C)=CCNc1ncnc2c1ncn2CCC(=O)OC(C)(C)C | > 200 µM | 117 µM | –
36 | Cc1cc(=O)n2c(nc3cc([N+](=O)[O-])ccc32)s1 | > 200 µM | 186 µM | –
37 | CCOC1NC(=O)Oc2ccccc21 (stereo not given) | – | – | inactive
38 | CC(=O)Oc1ccc2ccccc2c1Br | > 200 µM | 112 µM | –
39 | CCOC(=O)C(C)(C(=O)OCC)C1(c2ccccc2)OC(=O)c2ccccc21 (stereo not given) | – | – | inactive
40 | Cc1ccc2oc(=O)c(C#N)c(/C=C/c3ccc(Cl)cc3)c2c1 | > 200 µM | > 200 µM | –
41 | O=C(O)/C=C\C(=O)NNC(=O)/C=C\C(=O)O | > 1100 µM | > 1100 µM | –
42 | Cc1nc2ccccc2c(=O)n1NC(=O)Cc1ccccc1 | > 200 µM | > 200 µM | –

Row | SMILES | EC50 | IC50 | outcome
43 | Cc1cn(C2CC(N=[N+]=[N-])C(COC(=O)CCCCCCCCCCCI)O2)c(=O)[nH]c1=O (stereo not given) | 0.049 µM | 102 µM | –
44 | O=Cc1cc(C(=O)OCc2ccccc2)n(S(=O)(=O)c2ccccc2)c1 | > 200 µM | 17.4 µM | –
45 | CCC1C(c2cccc(OC)c2O)c2cc3c(cc2OC1N1CCCC1)OCO3 (stereo not given) | > 200 µM | 8.51 µM | –
46 | CCOc1ccccc1NC(=O)CSc1nnc(Cc2ccccc2)o1 | > 182 µM | 10 µM | –
47 | C[C@]12CNC(=O)C=C1CC[C@@H]1C2CC[C@]2(C)NC(=O)CCC12 (stereo not given in full) | – | – | inactive
48 | COc1cc2c3c(c1OC)C(=O)C=C3N(S(=O)(=O)c1ccc(C)cc1)CC2 | – | – | inactive
49 | CSc1ncnc2c1ncn2CCC(=O)OC(C)(C)C | > 200 µM | > 200 µM | –
50 | Cc1ncc(COP(=O)(O)O)c(/C=C2\SC(=S)NC2=O)c1O | > 200 µM | > 200 µM | –
51 | N=C(N)c1ccc(C(NC(=O)CNS(=O)(=O)c2ccc3ccccc3c2)P(=O)(Oc2ccccc2)Oc2ccccc2)cc1 (stereo not given) | 0.741 µM | 7.08 µM | –
52 | Cc1ccc(C2SCc3nc4ccccc4n32)cc1 (stereo not given) | > 200 µM | 1.02 µM | –
53 | O=c1oc2ccccc2cc1-n1nnc2cc([N+](=O)[O-])ccc21 | > 8.91 µM | > 8.91 µM | –
54 | Cc1c(O)c2ccccc2oc1=O | > 200 µM | > 200 µM | –
55 | O=C1/C(=C/c2ccccc2)CN(C(=O)OCC(Cl)(Cl)Cl)C/C1=C\c1ccccc1 | – | – | inactive
56 | COc1ccc2c(c1)OC[C@@H]1c3cc(NS(=O)(=O)c4ccccc4)cc(OCc4ccccc4)c3O[C@H]21 | 10.2 µM | 13.5 µM | –
57 | COc1ccc(C(=O)N2CCN(c3ccc4[nH]c(=O)oc4c3)CC2)cc1 | > 200 µM | > 200 µM | –
58 | Cc1oncc1NC1=CC(=O)C(=O)c2ccccc21 | > 200 µM | 8.51 µM | –
59 | CC/C(Br)=C1\CC2c3c(c4ccccc4n3C)CC(C1=O)N2Cc1ccccc1 (stereo not given) | – | – | inactive
60 | Cc1ccc(/C=C2\CCS(=O)(=O)c3ccccc3C2=O)cc1 | > 200 µM | 9.77 µM | –
61 | COC1(CC[C@@H](C)COC2OC(CO)C(O)C(O)C2O)O[C@H]2C[C@H]3[C@@H]4CC=C5C[C@@H](OC6OC(CO)C(OC7OC(C)C(O)C(O)C7O)C(O)C6OC6OC(C)C(O)C(O)C6O)CC[C@]5(C)[C@H]4CC[C@]3(C)[C@H]2[C@@H]1C (stereo not given in full) | > 200 µM | 2.57 µM | –
62 | C/C=C1\C=C(OC)CN(CCc2c[nH]c3ccccc23)C1 | > 158 µM | 50.1 µM | –
63 | C[C@]12CC[C@H](OC(=O)/C=C\c3cccc(N(CCCl)CCCl)c3)CC1CC[C@@H]1C2CC[C@]2(C)NC(=O)CCC12 (stereo not given in full) | – | – | inactive

Row | SMILES | EC50 | IC50 | outcome
64 | CC1=NNC(=O)C1C(CC(=O)c1c[nH]c2ccccc12)C(=O)O (stereo not given) | > 200 µM | 126 µM | –
65 | O=Cc1ccccc1COC(=O)c1cc(C(=O)OCc2ccccc2C=O)c(C(=O)OCc2ccccc2C=O)cc1C(=O)OCc1ccccc1C=O | > 0.759 µM | > 0.759 µM | –
66 | COC(=N)c1ncn(Cc2ccccc2)c1N | > 200 µM | 158 µM | –
67 | CCCn1c(SCC)c2ccccc2c1-c1nc(F)nc(F)n1 | > 8.13 µM | > 8.13 µM | –
68 | CN(CCN1C(=O)c2cccc3cccc(c23)C1=O)CCN1C(=O)c2cccc3cccc(c23)C1=O | > 26.3 µM | 9.12 µM | –
69 | C1CC[N-]CC1.Oc1ccccc1C=NCCN=Cc1ccccc1O.[Co] | > 200 µM | 15.5 µM | –
70 | N#CC12Cc3ccc4c(c3-c3cccc(c31)CCN2C(=O)c1ccccc1)OCO4 (stereo not given) | – | – | inactive
71 | COc1ccc(CC[N+](C)(C)C)cc1 | > 200 µM | > 200 µM | –
72 | CCCCCCCCCCCCCCCCCC(CCCCCCCCCCCCCCCCC)OP(=O)(O)O | – | – | inactive
73 | O=c1n(-c2ccccc2)c(=O)n2n1C1C3C4C3C2C2(F)C4C12 (stereo not given) | > 200 µM | > 200 µM | –
74 | COc1ccc2c(c1)c1cc(OC)ccc1n2CCCCOc1ccc(-c2c3ccccc3c(-c3ccc(OCCCCn4c5ccc(OC)cc5c5cc(OC)ccc54)cc3)c3ccccc23)cc1 | > 1.55 µM | > 1.55 µM | –
75 | O=C1CC2(CCNCC2)C(=O)N1N1CCOCC1 | > 200 µM | > 200 µM | –
76 | CC(=O)OCC(OC(C)=O)C(OC(C)=O)C(/C=N\Nc1nc2ccccc2c(=O)[nH]1)=N\Nc1nc2ccccc2c(=O)[nH]1 (stereo not given) | > 200 µM | > 200 µM | –
77 | Cc1nc2cc3[nH]c4ccccc4c(=O)c3cc2s1 | > 148 µM | > 148 µM | –
78 | CC(Oc1ccc2cc(C(=O)c3ccccc3)c(=O)oc2c1)C(=O)O (stereo not given) | – | – | inactive
79 | C#CC(C)(C)Oc1cc(OC)c2c(=O)c3ccccc3n(C)c2c1 | > 200 µM | 11 µM | –
80 | COc1ccc(CN2COc3c(ccc4cccnc34)C2)cc1 | > 200 µM | 0.759 µM | –
81 | CCS(=O)(=O)CCn1c(=O)c2c(ncn2C)n(C)c1=O | > 200 µM | > 200 µM | –
82 | O=C(O)C1C(C(=O)O)N2C(c3ccccc3)C(C(=O)O)C(C(=O)O)N2C1c1ccccc1 (stereo not given) | > 214 µM | > 214 µM | –
83 | CCOP(=O)(OCC)/C(C#N)=C/c1ccccn1 | 148 µM | > 200 µM | –
84 | CSC1=N/C(=C\c2ccc(C)cc2)C(=O)N1CN1CCCCC1 | > 200 µM | > 200 µM | –
